Data: patent US12303509B2, “Compounds for the treatment of BRAF-associated diseases and disorders” (Pfizer Inc., priority 2020, dated 2025)
pIC50: −log10 of the molar value. Like-named read-outs stand apart in the source and are kept apart here.

Assays:
BCRP [1] = settings: reported, Mittapalli et al.; cited from earlier work
H1755 cells = test: Cellular phospho-ERK inhibition assay in H1755 cells; assay type: cell-based; settings: read-out: H1755 Cell IC50
Method in brief: (§1)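 A375 (DMEM) or H1755 (RPMI) cells in 10% FBS treated 2 h at 37 °C with 9-point series, 66 pM–10 μM, 0.25% DMSO. Phospho-ERK1/2 (Thr202/Tyr204) measured by In Cell Western, normalised to GAPDH and to DMSO and 10 μM binimetinib controls; IC50 by 4-parameter fit.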

[2] = target: full-length FLAG-tagged B-Raf(V600E) (Homo sapiens (Human), UniProt P15056, V600E); test: BRAF V600E enzyme assay (TR-FRET competitive displacement); assay type: binding; settings: averaged IC50; TR-FRET tracer displacement, 60 min
full-length FLAG-tagged B-Raf(V600E), sequence (P15056 whole entry V600E): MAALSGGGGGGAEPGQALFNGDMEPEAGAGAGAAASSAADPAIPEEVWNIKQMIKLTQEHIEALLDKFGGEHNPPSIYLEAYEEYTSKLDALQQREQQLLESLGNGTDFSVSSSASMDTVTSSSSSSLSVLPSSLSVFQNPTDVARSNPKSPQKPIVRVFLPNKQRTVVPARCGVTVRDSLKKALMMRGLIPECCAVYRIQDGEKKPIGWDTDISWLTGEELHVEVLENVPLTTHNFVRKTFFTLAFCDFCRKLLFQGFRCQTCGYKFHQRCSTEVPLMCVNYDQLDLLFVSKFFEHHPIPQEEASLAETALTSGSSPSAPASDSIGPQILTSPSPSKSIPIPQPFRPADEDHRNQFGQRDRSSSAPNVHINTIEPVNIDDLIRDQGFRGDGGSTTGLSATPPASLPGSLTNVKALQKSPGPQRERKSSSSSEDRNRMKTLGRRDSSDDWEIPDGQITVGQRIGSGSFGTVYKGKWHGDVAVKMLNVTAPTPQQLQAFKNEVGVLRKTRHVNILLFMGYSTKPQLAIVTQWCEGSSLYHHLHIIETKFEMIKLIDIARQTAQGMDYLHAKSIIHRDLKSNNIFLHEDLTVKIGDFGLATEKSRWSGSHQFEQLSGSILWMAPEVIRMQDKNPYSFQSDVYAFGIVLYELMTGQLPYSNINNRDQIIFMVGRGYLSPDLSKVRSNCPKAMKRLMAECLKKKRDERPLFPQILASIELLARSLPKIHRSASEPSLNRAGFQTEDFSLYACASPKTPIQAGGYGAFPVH
Method in brief: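 Displacement of 50 nM Tracer 1710 from 5 nM full-length N-terminally FLAG-tagged B-Raf(V600E), detected by TR-FRET with 0.5 nM Eu anti-FLAG antibody, in 25 mM HEPES pH 7.4, 10 mM MgCl2, 2% DMSO; 60 min at ~22 °C. Compounds 11-point, 3-fold from 10 μM; IC50 from 4-parameter fit at 50 POC.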

A375 cells = test: Cellular phospho-ERK inhibition assay in A375 cells; assay type: cell-based; settings: 2 hours treatment, read-out: A357 cell IC50
Method in brief: as §1

[3] = test system: LLC-PK1 or MDCKII cell monolayer; test: MDR1 LLC-PK1 and BCRP MDCKII permeability assay: permeability coefficient (Papp); assay type: in vitro ADME; settings: Papp, test concentration 1 μM, 2 hours incubation
Excerpt: (§2) Final organic concentration in the assay was 1%.

[4] = test system: NCI-H1666 (BRAF G466V) cells; test: Proliferation assay (CellTiter-Glo) in NCI-H1666 cells; assay type: cell-based; settings: Homo sapiens, 3-5 day incubation
Procedure: (§3) The compounds of Example 13, Example 14 and Example 126 were evaluated in a proliferation assay in two mutant BRAF Class III cell lines: NCI-H1666 (BRAF^G466V) and WM3629 cells (BRAF^D594G/NRAS^G12D). NCI-H1666 cells were obtained from the American Type Culture Collection (ATCC, Rockville, MD) and WM3629 cells were obtained from Rockland Immunochemicals (Limerick, PA). Cells were maintained in RPMI growth medium containing 10% FBS.
(§4) Cells were harvested according to standard protocols, counted, and plated onto flat-bottom, 96-well tissue culture plates (Costar #3599) at 2000-5000 cells/well in 100 μL/well of growth medium containing 10% FBS. Cells were incubated at 37° C. with 5% CO2 overnight then treated with inhibitors prepared as a 9-point, 1:3.33 fold dilution series with final compound concentrations ranging from 66 pM-10 μM and a constant DMSO concentration of 0.25%. Control wells contained 0.25% DMSO alone. After a 3-5 day incubation at 37° C., 5% CO2, cell viability was determined by adding 100 μL CellTiter-Glo® Reagent (Promega) to each well and incubated for 15 minutes at room temperature. “Day 0” controls were determined by performing CellTiter-Glo© assay on DMSO control wells at the time of compound treatment (“Day 0” control=0 POC). Luminescence was measured on a Cytation 5 plate reader (BioTek) and values were converted to POC using the following equation:
(§5) [formula] • Where: • Xmax Average DMSO Controls • Xmin Average “Day 0” DMSO Controls • IC50 values were calculated using a 4-parameter fit in XLfit software and are shown in Table A2.

[5] = test system: WM3629 cells (BRAF D594G/NRAS G12D); test: Proliferation assay (CellTiter-Glo) in WM3629 cells; assay type: cell-based; settings: 3-5 day incubation
Procedure: as §3, §4, §5

[6] = test system: NCI-H1666 (BRAF G466V) cells; test: Cellular phospho-ERK inhibition assay in NCI-H1666 cells; assay type: cell-based; settings: Homo sapiens, 1 hour treatment, read-out: IC50 NCI-H1666 pERK
Procedure: as §3, with “phospho-ERK” for “proliferation”
(§6) Cells were harvested according to standard protocols, counted, and plated onto flat-bottom, 96-well tissue culture plates (Costar #3599) at 2.5×10^4 cells/well in 100 μL/well of growth medium containing 10% FBS. After an overnight incubation at 37° C. with 5% CO2 cells were treated for 1 hour at 37° C., 5% CO2 with inhibitors prepared as a 9-point, 1:3.33 fold dilution series with final compound concentrations ranging from 66 pM-10 μM and a constant DMSO concentration of 0.25%. Control wells contained either 0.25% DMSO alone (uninhibited control) or 10 μM binimetinib (complete inhibition control). The levels of phosphorylated ERK were determined using an In Cell Western protocol: following compound incubation, growth medium was discarded, and cells were fixed with 0.4% formaldehyde in PBS for 20 minutes at room temperature. Cells were permeabilized with 100% methanol for 10 minutes at room temperature. Plates were washed with PBS containing 0.05% Tween-20 and blocked for 1 hour at room temperature with LI-COR Blocking Buffer (LI-COR Biosciences; Cat. #927-40000). Plates were then incubated for 2 hours at room temperature with 50 μL of a 1:400 dilution of anti-phospho-ERK1/2 (Thr202/Tyr204) (Cell Signaling; Cat. #9101) and a 1:1000 dilution of anti-GAPDH (Millipore; Cat. #MAB374) in LI-COR blocking buffer containing 0.05% Tween-20. […] Plates were analyzed by reading on an Odyssey CLx infrared scanner. […]
(§7) [formula] • Where: • Xmax d Average Uninhibited Controls • Xmin Average Complete Inhibition Controls • IC50 values were then calculated using a 4-parameter fit in XLfit software and are shown in Table A2.

P-gp (MDR1) = P-gp (MDR1) (Homo sapiens (Human), UniProt P08183); test: MDR1 LLC-PK1 permeability assay: efflux ratio; assay type: in vitro ADME; settings: pig
P-gp (MDR1), sequence (P08183 whole entry, species assumed): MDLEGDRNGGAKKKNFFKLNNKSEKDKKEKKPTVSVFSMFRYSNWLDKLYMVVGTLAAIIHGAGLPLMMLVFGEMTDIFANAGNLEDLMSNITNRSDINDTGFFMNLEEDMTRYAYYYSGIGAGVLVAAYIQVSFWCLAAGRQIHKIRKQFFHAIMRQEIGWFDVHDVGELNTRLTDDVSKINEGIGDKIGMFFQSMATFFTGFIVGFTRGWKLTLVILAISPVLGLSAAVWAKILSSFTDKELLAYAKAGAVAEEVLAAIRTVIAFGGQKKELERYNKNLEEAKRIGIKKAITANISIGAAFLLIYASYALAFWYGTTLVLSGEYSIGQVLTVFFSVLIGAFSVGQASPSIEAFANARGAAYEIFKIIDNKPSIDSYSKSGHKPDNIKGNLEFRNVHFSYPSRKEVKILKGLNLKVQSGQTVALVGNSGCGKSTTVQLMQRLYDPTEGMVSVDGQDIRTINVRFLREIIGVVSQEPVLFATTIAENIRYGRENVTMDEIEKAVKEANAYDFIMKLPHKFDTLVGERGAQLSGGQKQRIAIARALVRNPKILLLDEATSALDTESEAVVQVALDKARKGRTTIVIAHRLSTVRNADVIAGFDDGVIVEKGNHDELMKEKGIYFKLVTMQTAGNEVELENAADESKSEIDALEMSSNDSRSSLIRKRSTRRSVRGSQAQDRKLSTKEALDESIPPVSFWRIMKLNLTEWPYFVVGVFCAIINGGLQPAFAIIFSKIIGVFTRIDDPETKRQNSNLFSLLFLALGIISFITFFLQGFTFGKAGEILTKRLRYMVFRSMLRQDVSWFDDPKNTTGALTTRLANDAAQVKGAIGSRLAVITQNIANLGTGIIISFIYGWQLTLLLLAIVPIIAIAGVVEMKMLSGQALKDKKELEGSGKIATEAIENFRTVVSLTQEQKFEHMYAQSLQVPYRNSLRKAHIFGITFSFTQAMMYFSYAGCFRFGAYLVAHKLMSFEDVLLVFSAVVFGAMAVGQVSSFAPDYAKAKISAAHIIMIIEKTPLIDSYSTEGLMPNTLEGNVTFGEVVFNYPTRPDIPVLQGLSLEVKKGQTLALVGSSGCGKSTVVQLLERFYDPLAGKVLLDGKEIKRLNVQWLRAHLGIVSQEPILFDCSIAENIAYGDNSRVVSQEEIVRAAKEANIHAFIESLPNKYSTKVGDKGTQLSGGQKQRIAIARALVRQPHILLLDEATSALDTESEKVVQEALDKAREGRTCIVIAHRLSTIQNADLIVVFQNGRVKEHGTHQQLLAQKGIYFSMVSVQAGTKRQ
Excerpt: as §2

[7] = test system: WM3629 cells (BRAF D594G/NRAS G12D); test: Cellular phospho-ERK inhibition assay in WM3629 cells; assay type: cell-based; settings: 1 hour treatment, read-out: IC50 WM3629 pERK
Procedure: as §3, with “phospho-ERK” for “proliferation”
as §6, §7

BCRP [8] = target: BCRP (Homo sapiens (Human), UniProt Q9UNQ0); test: BCRP MDCKII permeability assay: efflux ratio; assay type: in vitro ADME; settings: dog
BCRP (Homo sapiens (Human), UniProt Q9UNQ0), sequence (Q9UNQ0 whole entry): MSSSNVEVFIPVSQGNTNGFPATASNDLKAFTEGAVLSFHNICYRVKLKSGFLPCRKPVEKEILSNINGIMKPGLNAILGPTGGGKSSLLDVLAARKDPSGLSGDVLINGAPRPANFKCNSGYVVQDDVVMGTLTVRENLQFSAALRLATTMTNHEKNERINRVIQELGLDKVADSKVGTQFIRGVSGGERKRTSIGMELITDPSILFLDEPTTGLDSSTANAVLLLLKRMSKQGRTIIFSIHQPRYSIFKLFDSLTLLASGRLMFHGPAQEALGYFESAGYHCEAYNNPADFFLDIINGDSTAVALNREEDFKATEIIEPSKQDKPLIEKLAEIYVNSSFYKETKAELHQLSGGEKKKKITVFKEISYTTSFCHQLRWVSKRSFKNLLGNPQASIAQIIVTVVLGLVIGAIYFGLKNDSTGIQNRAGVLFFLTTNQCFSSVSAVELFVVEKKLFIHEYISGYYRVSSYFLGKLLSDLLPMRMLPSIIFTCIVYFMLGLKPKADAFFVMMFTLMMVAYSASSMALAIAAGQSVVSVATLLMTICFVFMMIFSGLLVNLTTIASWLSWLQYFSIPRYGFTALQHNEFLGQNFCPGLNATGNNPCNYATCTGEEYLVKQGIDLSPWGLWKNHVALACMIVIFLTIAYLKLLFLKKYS

[9] = MDR1 LLC-PK1 and BCRP MDCKII permeability assay: permeability coefficient (Papp); assay type: in vitro ADME
Excerpt: as §2

| SMILES | BCRP efflux ratio (BCRP [1]) | pIC50 (H1755 cells; 2 hours treatment) | pIC50 [2] | pIC50 (A375 cells; A375 cells (head prints A357)) | Permeability [3] | further results |
| --- | --- | --- | --- | --- | --- | --- |
| CC(C)(C)c1nc(-c2cccc(NS(=O)(=O)c3c(F)cccc3F)c2F)c(-c2ccnc(N)n2)s1 [dabrafenib] | 21.0 | – | – | – | – | – |
| CCCS(=O)(=O)Nc1ccc(F)c(C(=O)c2c[nH]c3ncc(-c4ccc(Cl)cc4)cc23)c1F [vemurafenib] | 495 | – | – | – | – | – |
| CN(C)S(=O)(=O)Nc1ccc(F)c(Oc2ccc3ncn(C)c(=O)c3c2F)c1Cl [Example 111, N-(2-chloro-4-fluoro-3-((5-fluoro-3-methyl-4-oxo-3,4-dihydroquinazolin-6-yl)oxy)phenyl)-(N,N-dimethyl)-sulfamide] | – | 7.10 | 8.00 | 7.92 | 29 *10^−6 cm/s | – |
| CCN(C)S(=O)(=O)Nc1ccc(F)c(Oc2ccc3ncn(C)c(=O)c3c2F)c1Cl [Example 112, N-(2-chloro-4-fluoro-3-((5-fluoro-3-methyl-4-oxo-3,4-dihydroquinazolin-6-yl)oxy)phenyl)-(N-ethyl-N-methyl)-sulfamide] | – | 6.98 | 7.70 | 7.62 | 28 *10^−6 cm/s | – |
| Cn1cnc2ccc(Nc3c(F)ccc(NS(=O)(=O)N4CC(F)C4)c3Cl)c(Cl)c2c1=O [Example 126, N-(2-chloro-3-((5-chloro-3-methyl-4-oxo-3,4-dihydroquinazolin-6-yl)amino)-4-fluorophenyl)-3-fluoroazetidine-1-sulfonamide] | – | – | – | – | – | pIC50 [4]: 6.41; pIC50 (H1755 cells; Homo sapiens, NCI-H1755, 2 hours treatment): 7.59; pIC50 [5]: < 5.00; pIC50 (A375 cells; Homo sapiens, A-375, A375 cells (head prints A357)): 8.70; pIC50 [6]: 7.82; efflux ratio at 2 h, 1 µM (P-gp (MDR1)): 2.1; pIC50 [7]: 8.85; efflux ratio at 2 h, 1 µM (BCRP [8]): 4.2; Papp at 2 h, 1 µM [9]: 44 ×10⁻⁶ cm/s |
